In BindingDB's records for doi:10.1016/j.chembiol.2006.12.006 (Research Institute, Hospital For Sick Children, 2007):

Target: T1, Beta-hexosaminidase subunit alpha (Homo sapiens, UniProt P06865)
T1 sequence (P06865 whole entry): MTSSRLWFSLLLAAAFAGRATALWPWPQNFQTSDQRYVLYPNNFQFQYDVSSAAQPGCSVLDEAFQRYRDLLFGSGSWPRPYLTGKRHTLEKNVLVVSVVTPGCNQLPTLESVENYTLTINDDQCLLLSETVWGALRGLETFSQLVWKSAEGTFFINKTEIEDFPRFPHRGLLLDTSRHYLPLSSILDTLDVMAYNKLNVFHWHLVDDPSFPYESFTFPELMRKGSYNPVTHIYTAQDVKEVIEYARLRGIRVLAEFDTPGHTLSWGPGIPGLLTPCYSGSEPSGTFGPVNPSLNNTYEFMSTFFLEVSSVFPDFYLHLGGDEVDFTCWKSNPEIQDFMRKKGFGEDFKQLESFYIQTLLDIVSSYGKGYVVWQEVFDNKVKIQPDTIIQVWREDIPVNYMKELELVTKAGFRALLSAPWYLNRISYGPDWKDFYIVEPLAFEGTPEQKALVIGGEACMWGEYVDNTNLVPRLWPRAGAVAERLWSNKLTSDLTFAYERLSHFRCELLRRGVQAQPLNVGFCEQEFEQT
Test: Enzyme Inhibition Assay
Settings: 25 °C
Source text: Enzyme assay based on 4-MU substrates with HTS to identify inhibitory compounds for Hex.

For `O=C1c2cccc3cccc(c23)C(=O)N1CCCO` [5141402], which IC50 is on record?
Its IC50 is 16 µM.

Which IC50 does the source give for `O=C1NC(=O)c2cccc3cccc1c23` [BTB12933] here?
Its IC50 is 18 µM.

For `O=C1c2cccc3cccc(c23)C(=O)N1CCCc1ccccn1` [M-31862], which IC50 is on record?
The IC50 was 108 µM.

With `CC(O)CCN1C(=O)c2cccc3cccc(c23)C1=O` (stereo not given) [M-31867] as the molecule, how does the IC50 read?
Its IC50 is 31 µM.

`O=C1c2cccc3cccc(c23)C(=O)N1CC1CCCO1` (stereo not given) [M-31860] was tested. Which IC50 did it give?
Its IC50 is 138 µM.
